Common to all, as to assay type: cell-based
One experiment relates to Phospho-Rb (Ser807/811). Description: Phospho-Retinoblastoma (pRB) Cellular Assay. To be noted: Homo sapiens, OVCAR-3, NIH OVCAR3 cells, 24 hours; for IC50: concentration giving 50% response; for Emax: maximum response, reference compound at 10 μM = 100%, read-out: pRB Ymax. A digest of the protocol: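 Phospho-Rb (Ser807/811) kit read-out on EnVision after lysis (≥4 h, room temperature, dark) of OVCAR3 cells exposed to compound dilutions for 24 h. IC50 and maximum response Ymax are relative to a 10 μM reference compound defining 100%.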

In another experiment the target is Cyclin E1 (Homo sapiens, UniProt P24864+Q96SW2). The experiment is described as follows: Cyclin E1 Cellular Degradation Assay (MSD). Also noted: endogenous in cells; host or cells: OVCAR3. To be noted: for DC50 / Dmax: Cyclin E1 cellular degradation; for Dmax: maximum degradation; for Ratio of GSPT1 DC50/Cyclin E1 DC50: selectivity for degradation of Cyclin E1 over GSPT1. A digest of the protocol:
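Cyclin E1 remaining after 24 h compound exposure of OVCAR3 cells was quantified in lysates by electrochemiluminescent MSD sandwich assay. DC50 (50% response concentration) and Dmax (maximum response) were calculated, with 110% response set by a reference compound at […].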

The target of a further experiment is GSPT1 (Homo sapiens, UniProt P15170+Q96SW2). Description: GSPT1 Cellular Degradation Assay (DF15-GSPT1-ePL). Set-up: expressed in transfected cells. To be noted: DF15-GSPT1-ePL cells, 20 hours. A digest of the protocol: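 DC50 and Dmax were derived from chemiluminescence, with 75% response set by the reference compound at […]. Readout was ePL enzyme-fragment complementation in a DF15 line expressing chimeric GSPT1. Cells were exposed to compound for 20 h at 37 °C in RPMI 1640 with 10% FBS, cooled 30 min, then lysed with substrate for 60 min.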
GSPT1, sequence (P15170 whole entry, the tested form may be a part): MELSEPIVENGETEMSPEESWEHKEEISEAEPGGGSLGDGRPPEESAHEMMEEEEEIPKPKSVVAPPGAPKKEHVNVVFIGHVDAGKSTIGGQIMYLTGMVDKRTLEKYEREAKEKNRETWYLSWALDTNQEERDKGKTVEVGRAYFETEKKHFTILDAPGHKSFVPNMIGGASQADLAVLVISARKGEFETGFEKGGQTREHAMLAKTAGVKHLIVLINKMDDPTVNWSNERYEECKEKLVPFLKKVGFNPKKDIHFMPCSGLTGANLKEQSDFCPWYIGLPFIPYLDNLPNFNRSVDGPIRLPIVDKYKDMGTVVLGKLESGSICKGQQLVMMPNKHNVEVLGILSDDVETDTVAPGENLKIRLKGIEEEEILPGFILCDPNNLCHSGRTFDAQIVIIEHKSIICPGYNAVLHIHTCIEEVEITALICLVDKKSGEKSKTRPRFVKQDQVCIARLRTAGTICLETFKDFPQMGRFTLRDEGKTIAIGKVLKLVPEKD
GSPT1, sequence (Q96SW2 whole entry, the tested form may be a part): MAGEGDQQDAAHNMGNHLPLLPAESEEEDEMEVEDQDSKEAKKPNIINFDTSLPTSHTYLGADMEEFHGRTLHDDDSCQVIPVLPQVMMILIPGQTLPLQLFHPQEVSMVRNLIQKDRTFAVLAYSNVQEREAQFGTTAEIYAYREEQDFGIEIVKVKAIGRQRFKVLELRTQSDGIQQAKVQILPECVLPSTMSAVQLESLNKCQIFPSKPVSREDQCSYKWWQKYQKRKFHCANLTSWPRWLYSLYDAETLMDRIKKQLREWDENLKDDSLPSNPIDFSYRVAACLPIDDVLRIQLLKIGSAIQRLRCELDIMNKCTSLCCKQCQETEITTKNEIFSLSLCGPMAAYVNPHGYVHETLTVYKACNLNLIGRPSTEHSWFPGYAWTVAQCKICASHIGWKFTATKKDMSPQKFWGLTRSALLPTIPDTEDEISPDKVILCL
GSPT1, sequence (Q16531 whole entry partner, the tested form may be a part): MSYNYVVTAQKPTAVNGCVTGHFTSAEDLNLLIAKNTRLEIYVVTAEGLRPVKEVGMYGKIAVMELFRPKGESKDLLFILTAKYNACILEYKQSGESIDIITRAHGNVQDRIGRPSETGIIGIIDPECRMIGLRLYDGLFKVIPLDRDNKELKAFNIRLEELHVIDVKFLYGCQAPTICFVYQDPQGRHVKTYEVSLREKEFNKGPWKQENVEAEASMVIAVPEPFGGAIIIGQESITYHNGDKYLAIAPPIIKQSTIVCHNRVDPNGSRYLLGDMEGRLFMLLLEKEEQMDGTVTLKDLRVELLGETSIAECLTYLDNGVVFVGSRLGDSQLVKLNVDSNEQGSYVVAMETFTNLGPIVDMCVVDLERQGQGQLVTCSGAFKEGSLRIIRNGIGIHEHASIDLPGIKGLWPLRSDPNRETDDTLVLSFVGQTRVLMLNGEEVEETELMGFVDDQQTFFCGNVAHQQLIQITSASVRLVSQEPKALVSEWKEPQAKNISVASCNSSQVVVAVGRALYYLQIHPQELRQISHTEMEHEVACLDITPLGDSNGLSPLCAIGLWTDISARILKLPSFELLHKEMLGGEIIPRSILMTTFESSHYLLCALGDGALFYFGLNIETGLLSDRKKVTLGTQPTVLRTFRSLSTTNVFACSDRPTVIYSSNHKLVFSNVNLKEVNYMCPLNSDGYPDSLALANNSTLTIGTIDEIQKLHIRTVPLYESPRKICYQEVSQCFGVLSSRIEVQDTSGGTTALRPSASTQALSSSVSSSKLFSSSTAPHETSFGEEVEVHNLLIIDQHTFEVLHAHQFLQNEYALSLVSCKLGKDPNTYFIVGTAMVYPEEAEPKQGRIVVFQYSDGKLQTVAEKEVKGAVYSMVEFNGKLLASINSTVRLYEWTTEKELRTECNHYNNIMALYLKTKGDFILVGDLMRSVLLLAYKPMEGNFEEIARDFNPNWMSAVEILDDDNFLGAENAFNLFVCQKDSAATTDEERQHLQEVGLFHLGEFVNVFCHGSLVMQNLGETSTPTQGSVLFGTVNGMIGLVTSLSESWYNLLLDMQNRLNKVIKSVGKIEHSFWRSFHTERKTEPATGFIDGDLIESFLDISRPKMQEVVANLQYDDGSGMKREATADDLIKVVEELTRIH

The IC50 is the concentration that gives 50% inhibition. Low readings indicate greater potency, high ones weaker potency. As usually defined, the DC50 is the concentration at which degradation of the target reaches its halfway point. Read a high DC50 as a less potent degrader. As a reminder, the Dmax is the greatest extent of degradation seen.

Cyclin E1, sequence (P24864 whole entry): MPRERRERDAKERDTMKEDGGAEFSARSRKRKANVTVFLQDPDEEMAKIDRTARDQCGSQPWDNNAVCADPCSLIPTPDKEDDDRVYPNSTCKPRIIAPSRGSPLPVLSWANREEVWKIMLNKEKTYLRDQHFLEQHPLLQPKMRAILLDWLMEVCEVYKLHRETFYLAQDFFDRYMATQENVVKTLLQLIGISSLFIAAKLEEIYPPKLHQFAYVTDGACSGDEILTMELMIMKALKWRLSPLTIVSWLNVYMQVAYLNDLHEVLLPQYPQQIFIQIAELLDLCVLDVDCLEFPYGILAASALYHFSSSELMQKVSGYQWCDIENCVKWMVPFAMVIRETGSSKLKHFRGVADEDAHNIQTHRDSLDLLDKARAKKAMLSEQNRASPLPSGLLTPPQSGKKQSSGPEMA
Cyclin E1, sequence (Q96SW2 whole entry): as the sequence (Q96SW2 whole entry, the tested form may be a part) above
Cyclin E1, sequence (Q16531 whole entry partner): as the sequence (Q16531 whole entry partner, the tested form may be a part) above

In the case of `COc1c(COC(=O)Nc2ccc(Cc3ccc(F)c(F)c3)cc2C)ccc2c1C(=O)N(C1CCC(=O)NC1=O)C2` (stereo not drawn) [Example 18, [2-(2,6-dioxopiperidin-3-yl)-4-methoxy-3-oxo-2,3-dihydro-1H-isoindol-5-yl]methyl N-{4-[(3,4-difluorophenyl)methyl]-2-methylphenyl}carbamate], in the experiment on Phospho-Rb (Ser807/811), it took 85 nM to reach half-maximal inhibition (IC50) and the Emax is 110%. At Cyclin E1, it took 89 nM to reach half-maximal degradation (DC50), the Dmax was determined as 100% and the “Ratio of GSPT1 DC50/Cyclin E1 DC50” value is reported as more than 157. At GSPT1, the DC50 was more than 14 µM and the Dmax is 13%.
Take `COc1c(COC(=O)Nc2ccc(Oc3cc(F)cc(F)c3)cc2F)ccc2c1C(=O)N(C1CCC(=O)NC1=O)C2` (stereo not drawn) [Example 24, [2-(2,6-dioxopiperidin-3-yl)-4-methoxy-3-oxo-2,3-dihydro-1H-isoindol-5-yl]methyl N-[4-(3,5-difluorophenoxy)-2-fluorophenyl]carbamate]: in the experiment with Phospho-Rb (Ser807/811), the IC50 was 229 nM and the Emax is 105%. Further, at Cyclin E1, the DC50 came to 39 nM, the Dmax came to 107% and the “Ratio of GSPT1 DC50/Cyclin E1 DC50” value is reported as more than 358. At GSPT1, the DC50 is more than 14 µM and the Dmax was 10%.
With `O=C1CCC(N2Cc3ccc(COC(=O)Nc4ccc(Oc5ccc(F)c(F)c5)cc4)c(OCC(=O)N4CCOCC4)c3C2=O)C(=O)N1` (stereo not drawn) [Example 178, [2-(2,6-dioxopiperidin-3-yl)-4-[2-(morpholin-4-yl)-2-oxoethoxy]-3-oxo-2,3-dihydro-1H-isoindol-5-yl]methyl N-[4-(3,4-difluorophenoxy)phenyl]carbamate], in the experiment with Phospho-Rb (Ser807/811), the IC50 worked out at 131 nM and the Emax was determined as 126%. Besides, at Cyclin E1, it took 110 nM to reach half-maximal degradation (DC50), the Dmax turned out to be 105% and the “Ratio of GSPT1 DC50/Cyclin E1 DC50” value is reported as more than 127. Also, at GSPT1, the DC50 was more than 14 µM and the Dmax was 16%.
Take `COc1c(COC(=O)Nc2ccc(Oc3ccc(F)cc3Cl)cc2)ccc2c1C(=O)N(C1CCC(=O)NC1=O)C2` (stereo not drawn) [Example 102, [2-(2,6-dioxopiperidin-3-yl)-4-methoxy-3-oxo-2,3-dihydro-1H-isoindol-5-yl]methyl N-[4-(2-chloro-4-fluorophenoxy)phenyl]carbamate]: in the experiment on Phospho-Rb (Ser807/811), the IC50 was 121 nM and the Emax turned out to be 120%. Also, at Cyclin E1, the DC50 is 59 nM, the Dmax was determined as 108% and the “Ratio of GSPT1 DC50/Cyclin E1 DC50” value is on record as more than 236. At GSPT1, the DC50 is more than 14 µM and the Dmax is 35%.
In the case of `COc1c(COC(=O)Nc2ccc(Oc3ccc(F)cc3F)cc2F)ccc2c1C(=O)N(C1CCC(=O)NC1=O)C2` (stereo not drawn) [Example 30, [2-(2,6-dioxopiperidin-3-yl)-4-methoxy-3-oxo-2,3-dihydro-1H-isoindol-5-yl]methyl N-[4-(2,4-difluorophenoxy)-2-fluorophenyl]carbamate], in the experiment with Phospho-Rb (Ser807/811), the IC50 is 442 nM and the Emax was 107%. Further, at Cyclin E1, the DC50 came out at 672 nM, the Dmax amounted to 103% and the “Ratio of GSPT1 DC50/Cyclin E1 DC50” value is recorded as more than 21. Further, at GSPT1, the DC50 is more than 14 µM and the Dmax came out at 31%.
`O=C1CCC(N2Cc3ccc(COC(=O)Nc4ccc(Oc5ccc(F)c(F)c5)cc4)c(OC4COC4)c3C2=O)C(=O)N1` (stereo not drawn) [Example 129, [2-(2,6-dioxopiperidin-3-yl)-4-(oxetan-3-yloxy)-3-oxo-2,3-dihydro-1H-isoindol-5-yl]methyl N-[4-(3,4-difluorophenoxy)phenyl]carbamate]: in the experiment with Phospho-Rb (Ser807/811), the IC50 worked out at 187 nM and the Emax was 117%. At Cyclin E1, half-maximal degradation (DC50) was put at 221 nM, the Dmax turned out to be 107% and the “Ratio of GSPT1 DC50/Cyclin E1 DC50” value was more than 63. For the same molecule, at GSPT1, the DC50 was more than 14 µM and the Dmax was determined as 19%.
Take `O=C1CCC(N2Cc3ccc(COC(=O)Nc4ccc(Oc5cccc(F)c5)cc4)c(O[C@@H]4CCCOC4)c3C2=O)C(=O)N1` (stereo partly drawn) [Example 143, [2-(2,6-dioxopiperidin-3-yl)-4-[(3R)-oxan-3-yloxy]-3-oxo-2,3-dihydro-1H-isoindol-5-yl]methyl N-[4-(3-fluorophenoxy)phenyl]carbamate]: in the experiment on Phospho-Rb (Ser807/811), the IC50 worked out at 66 nM and the Emax was determined as 153%. Besides, on Cyclin E1, it took 31 nM to reach half-maximal degradation (DC50), the Dmax was found to be 110% and the “Ratio of GSPT1 DC50/Cyclin E1 DC50” value was more than 445. Moreover, at GSPT1, the DC50 is more than 14 µM and the Dmax worked out at 8%.
`COc1c(COC(=O)Nc2ccc(Oc3cccc(F)c3F)cc2)ccc2c1C(=O)N(C1CCC(=O)NC1=O)C2` (stereo not drawn) [Example 110, [2-(2,6-dioxopiperidin-3-yl)-4-methoxy-3-oxo-2,3-dihydro-1H-isoindol-5-yl]methyl N-[4-(2,3-difluorophenoxy)phenyl]carbamate]: in the experiment on Phospho-Rb (Ser807/811), 72 nM corresponded to half-maximal inhibition (IC50) and the Emax amounted to 99%. For the same molecule, on Cyclin E1, the DC50 worked out at 173 nM, the Dmax amounted to 106% and the “Ratio of GSPT1 DC50/Cyclin E1 DC50” value is more than 81. Moreover, at GSPT1, the DC50 is more than 14 µM and the Dmax was 20%.
For `COc1cc(Oc2cc(F)c(F)cc2F)ccc1NC(=O)OCc1ccc2c(c1OC)C(=O)N(C1CCC(=O)NC1=O)C2` (stereo not drawn) [Example 34, [2-(2,6-dioxopiperidin-3-yl)-4-methoxy-3-oxo-2,3-dihydro-1H-isoindol-5-yl]methyl N-[2-methoxy-4-(2,4,5-trifluorophenoxy)phenyl]carbamate], in the experiment with Phospho-Rb (Ser807/811), it took 77 nM to reach half-maximal inhibition (IC50) and the Emax is 122%. Further, at Cyclin E1, the DC50 turned out to be 194 nM, the Dmax was found to be 107% and the “Ratio of GSPT1 DC50/Cyclin E1 DC50” value was more than 72. In addition, on GSPT1, the DC50 is more than 14 µM and the Dmax is 19%.
Regarding `COc1c(COC(=O)Nc2ccc(Oc3ccc(F)cc3)cc2F)ccc2c1C(=O)N(C1CCC(=O)NC1=O)C2` (stereo not drawn) [Example 28, [2-(2,6-dioxopiperidin-3-yl)-4-methoxy-3-oxo-2,3-dihydro-1H-isoindol-5-yl]methyl N-[2-fluoro-4-(4-fluorophenoxy)phenyl]carbamate], in the experiment with Phospho-Rb (Ser807/811), the IC50 stood at 100 nM and the Emax was 106%. Also, at Cyclin E1, the DC50 turned out to be 110 nM, the Dmax is 103% and the “Ratio of GSPT1 DC50/Cyclin E1 DC50” value is recorded as more than 127. At GSPT1, the DC50 was more than 14 µM and the Dmax is 45%.
With `COC(=O)COc1c(COC(=O)Nc2ccc(Oc3ccc(F)c(F)c3)cc2)ccc2c1C(=O)N(C1CCC(=O)NC1=O)C2` (stereo not drawn) [Example 174, Methyl 2-({5-[({[4-(3,4-difluorophenoxy)phenyl]carbamoyl}oxy)methyl]-2-(2,6-dioxopiperidin-3-yl)-3-oxo-2,3-dihydro-1H-isoindol-4-yl}oxy)acetate], in the experiment with Phospho-Rb (Ser807/811), the IC50 came to 473 nM and the Emax is 99%. In addition, at Cyclin E1, the DC50 is 204 nM, the Dmax is 100% and the “Ratio of GSPT1 DC50/Cyclin E1 DC50” value is given as more than 69. Besides, on GSPT1, the DC50 is more than 14 µM and the Dmax turned out to be 16%.
Consider `COc1c(COC(=O)Nc2ccc(Cc3cccc(F)c3)cc2)ccc2c1C(=O)N(C1CCC(=O)NC1=O)C2` (stereo not drawn) [Example 6, [2-(2,6-dioxopiperidin-3-yl)-4-methoxy-3-oxo-2,3-dihydro-1H-isoindol-5-yl]methyl N-{4-[(3-fluorophenyl)methyl]phenyl}carbamate], for which, in the experiment with Phospho-Rb (Ser807/811), the IC50 turned out to be 149 nM and the Emax amounted to 117%. Moreover, at Cyclin E1, the DC50 is 62 nM, the Dmax came to 94% and the “Ratio of GSPT1 DC50/Cyclin E1 DC50” value is reported as more than 226. Further, on GSPT1, the DC50 is more than 14 µM and the Dmax stood at 6%.
